Data reported in patent US11178874B2, “Articles comprising antioxidizing agents and bacteriostatic agents, and production processes thereof” (BENVIC SAS, priority 2016, dated 2021).

Tested on: microorganisms usually present in the environment
Experiment: Counting of microorganisms on a growth plate after incubation (bacteriostatic effect of solutions)
Assay type: cell-based
Settings: for cfu/plate: control 597 cfu; for Reduction % observed: vs control 597 cfu
Description: The counting of microorganisms was carried out on a growth plate, after the incubation period (as regards the type of microorganisms, they are microorganisms usually present in the environment). […] Then, the bacteriostatic effect was evaluated of:
a solution of selenium phloroglucinol (20 ppm of selenium, i.e. corresponding to 0.002% by weight);
three solutions of zinc PCA, with a concentration of zinc of 10 ppm, 20 ppm and 30 ppm respectively (i.e. respectively corresponding to 0.001%, 0.002% and 0.003% by weight).
In order to evaluate the synergic effect between zinc and antioxidizing agent, the tests indicated above were repeated, using three solutions separately, respectively containing: selenium 20 ppm+zinc 10 ppm; selenium 20 ppm+zinc 20 ppm; selenium 20 ppm+zinc 30 ppm.

Molecule O=C1CC[C@@H](C(=O)[O-])N1.O=C1CC[C@@H](C(=O)[O-])N1.[Zn+2] [Zinc] has a cfu/plate (solution 10 ppm) of 571 cfu/plate, a Reduction % observed (solution 10 ppm) of 5.1% and a cfu/plate (solution 20 ppm) of 550 cfu/plate. It also gave a Reduction % observed (solution 20 ppm) of 6.0%, a cfu/plate (solution 30 ppm) of 491 cfu/plate and a Reduction % observed (solution 30 ppm) of 17.1%.
